Experimental data published in patent US7423048B2, “Compounds for treating fundic disaccomodation” (Janssen Pharmaceutica, N.V., priority 2000, dated 2008).
Marks after values point to notes of the source that are not given here.

Test system: fundus of the stomach (gastric tone) in conscious dogs
Assay: Gastric tone measured by an electronic barostat in conscious dogs
Format: in vivo, beagle dogs
Conditions: 1 hour observation period, constant pressure 6 mmHg
Text: C. Pharmacological Examples C.1 Gastric Tone Measured by an Electronic Barostat in Conscious Dogs
Gastric tone cannot be measured by manometric methods. Therefore an electronic barostat was used. This allows the study of the physiological pattern and regulation of gastric tone in conscious dogs and the influence of test-compounds on this tone.
The barostat consists of an air injection system which is connected by a double-lumen 14-French polyvinyl tube to an ultrathin flaccid polyethylene bag (maximal volume: ±700 ml). Variations in gastric tone were measured by recording changes in the volume of air within an intragastric bag, maintained at a constant pressure. The barostat maintains a constant pressure (preselected) within a flaccid air-filled bag introduced into the stomach, changing the volume of air within the bag by an electronic feedback system.
Thus the barostat measures gastric motor activity (contraction or relaxation) as changes in intragastric volume (decrease or increase resp.) at a constant intragastric pressure. The barostat consists of a strain gauge linked by an electronic relay to an air injection-aspiration system. Both the strain gauge and the injection system are connected by means of double-lumen polyvinyl tube to an ultrathin polyethylene bag. A dial in the barostat allows selection of the pressure level to be maintained within the intragastric bag.
Female beagle dogs, weighing 7-17 kg, were trained to stand quietly in Pavlov frames. They were implanted with a gastric cannula under general anaesthesia and aseptic precautions. After a median laparotomy, an incision was made through the gastric wall in longitudinal direction between the greater and the lesser curve, 2 cm above the nerves of Latarjet. The cannula was secured to the gastric wall by means of a double purse string suture and brought out via a stub wound at the left quadrant of the hypochondrium. Dogs were allowed a recovery period of two weeks.
At the beginning of the experiment, the cannula was opened in order to remove any gastric juice or food remnants. If necessary, the stomach was cleansed with 40 to 50 ml lukewarm water. The ultrathin bag of the barostat was positioned into the fundus of the stomach through the gastric cannula. In order to ensure easy unfolding of the intragastric bag during the experiment, a volume of 300-400 ml was injected twice into the bag.
When during a stabilisation period of maximum 90 minutes, the gastric volume is stable during 15 minutes at a constant pressure of 6 mmHg (about 0.81 kPa), the test compound was administered subcutaneously (S.C.), or intraduodenally (I.D.). Test compounds were screened, i.e. changes in gastric volume were measured, usually at 0.63 mg/kg. […] Table C-1 summarizes the mean maximal change in volume on relaxation of the fundus, during the 1 hour observation period after S.C. or I.D. administration of the test compound (0.63 mg/kg).

[1] = S.C. administration, 0.63 mg/kg

SMILES | Maximum change in volume (mean maximal change in volume on relaxation of the fundus) [1] [mL] | also measured
CC1(C)CNC(=O)N(CCCNCC2Oc3cccnc3O2)C1 (racemic) [Compound 10, (±)-1-[3-[(1,3-dioxolo[4,5-b]pyridin-2-ylmethyl)amino]-propyl]tetrahydro-5,5-dimethyl-2(1H)-pyrimidinone] | 31 | 
O=C(O)C(=O)O.O=C1NCCCN1CCCNCC1CCc2cccnc2O1 (racemic) [Compound 9, (±)-1-[3-[[(3,4-dihydro-2H-pyrano[2,3-b]pyridin-2-yl)methyl]amino]propyl]tetrahydro-2(1H)-pyrimidinone ethanedioate (1:1)] | 78 | 
O=C1CCN(CCCNC[C@H]2COc3cccnc3O2)C(=O)N1 [Compound 25, (S)-1-[3-[[(2,3-dihydro[1,4]dioxino[2,3-b]pyridin-3-yl)methyl]amino]-propyl]dihydro-2,4(1H,3H)-pyrimidinedione] |  | Maximum change in volume (mean maximal change in volume on relaxation of the fundus) (I.D. administration, 0.04 mg/kg (footnote *)): 226* ml
O=C1CN(CC(O)CNCC2COc3cccnc3O2)C(=O)N1 (centres unmarked) [Compound 13, 1-[3-[[(2,3-dihydro-1,4-dioxino[2,3-b]pyridin-3-yl)methyl]amino]-2-hydroxypropyl]-2,4-imidiazolidinedione] |  | Maximum change in volume (mean maximal change in volume on relaxation of the fundus) (I.D. administration, 0.63 mg/kg): 118 mL
O=C1NCCCN1CCCNCC1COc2cccnc2O1 (racemic) [Compound 1, (±)-1-[3-[[(2,3-dihydro-1,4-dioxino[2,3-b]pyridin-3-yl)methyl]amino]propyl]tetrahydro-2(1H)pyrimidinone] | 156 | 
